System: CD8+ T cells of healthy HLA-A*24 donors
Assay: In vitro immunogenicity for MHC class I presented peptides (aAPC priming, A*2402 multimer staining)
Assay type: cell-based, human
Details: in vitro priming of CD8+ T cells with peptide-loaded HLA-A*2402/anti-CD28 beads, three stimulation cycles
Method: CD8 T cells were either directly enriched from the leukapheresis product or PBMCs (peripheral blood mononuclear cells) were isolated first by using standard gradient separation medium (PAA, Cölbe, Germany). Isolated CD8 lymphocytes or PBMCs were incubated until use in T-cell medium (TCM) consisting of RPMI-Glutamax (Invitrogen, Karlsruhe, Germany) supplemented with 10% heat inactivated human AB serum (PAN-Biotech, Aidenbach, Germany), 100 U/ml Penicillin/100 μg/ml Streptomycin (Cambrex, Cologne, Germany), 1 mM sodium pyruvate (CC Pro, Oberdorla, Germany), 20 μg/ml Gentamycin (Cambrex). […] Isolation of CD8+ lymphocytes was performed by positive selection using CD8 MicroBeads (Miltenyi Biotec, Bergisch-Gladbach, Germany).
800.000 beads/200 μl were coated in 96-well plates in the presence of 600 ng biotin anti-CD28 plus 200 ng relevant biotin-pMHC (high density beads). Stimulations were initiated in 96-well plates by co-incubating 1×10^6 CD8+ T cells with 2×10^5 washed coated beads in 200 μl TCM supplemented with 5 ng/ml IL-12 (PromoCell) for 3-4 days at 37° C. […] Peptide specific cells were calculated as percentage of total CD8+ cells. […] In vitro priming of specific multimer+ CD8+ lymphocytes was detected by appropriate gating and by comparing to negative control stimulations.

1 (FYISPVNKL; listed as Homo sapiens) [compound 1]
Positive donors/donors tested [%] (among evaluable donors): 100%
Positive wells/wells tested [%] (among evaluable wells): 50%
